# Laboratory results reported in ChEMBL document CHEMBL1201862, “PubChem BioAssay data set” (2004).
#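 96-well plates; 48 h exposure; 5 concentrations. Endpoints by linear interpolation between flanking doses. Not reached: highest tested concentration assigned. Here, GI50 denotes the concentration required for 50% inhibition of growth.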 The source made the active and inactive calls. Rule as the data show it: active = GI50 up to about 1.1 µM and inactive = higher.
# Assays:
# Assay in all cases: NCI anticancer screen, dose series, 48 h
# RPMI-8226 = system: RPMI-8226
# NCI-H226 = system: NCI-H226
# Hs-578T = system: Hs-578T
# SF-268 = system: SF-268
# SF-295 = system: SF-295
# SK-MEL-28 = system: SK-MEL-28
# CAKI-1 = system: CAKI-1
# UACC-257 = system: UACC-257
# SR = system: SR
# IGROV-1 = system: IGROV-1
# SK-MEL-2 = system: SK-MEL-2
# OVCAR-8 = system: OVCAR-8
# SW-620 = system: SW-620
# OVCAR-3 = system: OVCAR-3
# HT-29 = system: HT-29
# MOLT-4 = system: MOLT-4
# NCI-H23 = system: NCI-H23
# NCI-H522 = system: NCI-H522
# DU-145 = system: DU-145
# OVCAR-4 = system: OVCAR-4
# BT-549 = system: BT-549
# UACC-62 = system: UACC-62
# UO-31 = system: UO-31
# SK-MEL-5 = system: SK-MEL-5
# ACHN = system: ACHN
# LOX IMVI = system: LOX IMVI
# SF-539 = system: SF-539
# HOP-62 = system: HOP-62
# PC-3 = system: PC-3
# HOP-92 = system: HOP-92
# 786-0 = system: 786-0
# T47D = system: T47D
# Malme-3M = system: Malme-3M
# TK-10 = system: TK-10
# U-251 = system: U-251
# HCC 2998 = system: HCC 2998
# A549 = system: A549
# HCT-116 = system: HCT-116
# SNB-19 = system: SNB-19
# MDA-N = system: MDA-N
# HL-60 = system: HL-60
# A498 = system: A498
# RXF 393 = system: RXF 393
# M14 = system: M14
# NCI-H460 = system: NCI-H460
# K562 = system: K562
# MDA-MB-231 = system: MDA-MB-231
# HCT-15 = system: HCT-15
# EKVX = system: EKVX
# SN12C = system: SN12C
# KM12 = system: KM12
# CCRF-CEM = system: CCRF-CEM
# MCF7 = system: MCF7
# OVCAR-5 = system: OVCAR-5
# NCI/ADR-RES = system: NCI/ADR-RES
# MDA-MB-435 = system: MDA-MB-435
# SNB-75 = system: SNB-75
# SK-OV-3 = system: SK-OV-3
# COLO 205 = system: COLO 205
smiles,measurement,setting,value
COc1ccc(-c2c3c([nH]c(=S)c2C#N)CC(C)(C)CC3=O)cc1,GI50,RPMI-8226,> 100 µM (inactive)
same,GI50,NCI-H226,> 100 µM (inactive)
same,GI50,Hs-578T,> 100 µM (inactive)
same,GI50,SF-268,> 100 µM (inactive)
same,GI50,SF-295,> 100 µM (inactive)
same,GI50,SK-MEL-28,> 100 µM (inactive)
same,GI50,CAKI-1,> 100 µM (inactive)
same,GI50,UACC-257,> 100 µM (inactive)
same,GI50,SR,> 100 µM (inactive)
same,GI50,IGROV-1,> 100 µM (inactive)
same,GI50,SK-MEL-2,> 100 µM (inactive)
same,GI50,OVCAR-8,> 100 µM (inactive)
same,GI50,SW-620,> 100 µM (inactive)
same,GI50,OVCAR-3,> 100 µM (inactive)
same,GI50,HT-29,> 100 µM (inactive)
same,GI50,MOLT-4,> 100 µM (inactive)
same,GI50,NCI-H23,> 100 µM (inactive)
same,GI50,NCI-H522,36.4 µM (inactive)
same,GI50,DU-145,> 100 µM (inactive)
same,GI50,OVCAR-4,> 100 µM (inactive)
same,GI50,BT-549,> 100 µM (inactive)
same,GI50,UACC-62,> 100 µM (inactive)
same,GI50,UO-31,> 100 µM (inactive)
same,GI50,SK-MEL-5,> 100 µM (inactive)
same,GI50,ACHN,> 100 µM (inactive)
same,GI50,LOX IMVI,> 100 µM (inactive)
same,GI50,SF-539,> 100 µM (inactive)
same,GI50,HOP-62,> 100 µM (inactive)
same,GI50,PC-3,> 100 µM (inactive)
same,GI50,HOP-92,> 100 µM (inactive)
same,GI50,786-0,> 100 µM (inactive)
same,GI50,T47D,59.6 µM (inactive)
same,GI50,Malme-3M,> 100 µM (inactive)
same,GI50,TK-10,> 100 µM (inactive)
same,GI50,U-251,> 100 µM (inactive)
same,GI50,HCC 2998,> 100 µM (inactive)
same,GI50,A549,> 100 µM (inactive)
same,GI50,HCT-116,> 100 µM (inactive)
same,GI50,SNB-19,> 100 µM (inactive)
same,GI50,MDA-N,> 100 µM (inactive)
same,GI50,HL-60,> 100 µM (inactive)
same,GI50,A498,55.6 µM (inactive)
same,GI50,RXF 393,> 100 µM (inactive)
same,GI50,M14,> 100 µM (inactive)
same,GI50,NCI-H460,> 100 µM (inactive)
same,GI50,K562,61.7 µM (inactive)
same,GI50,MDA-MB-231,> 100 µM (inactive)
same,GI50,HCT-15,> 100 µM
same,GI50,EKVX,> 100 µM (inactive)
same,GI50,SN12C,> 100 µM (inactive)
same,GI50,KM12,> 100 µM (inactive)
same,GI50,CCRF-CEM,56.2 µM (inactive)
same,GI50,MCF7,> 100 µM (inactive)
same,GI50,OVCAR-5,> 100 µM (inactive)
CCOc1ccc(NC(=O)C(=O)C2C(=O)Nc3ccccc3[S+]2[O-])cc1 (centres undefined),GI50,RPMI-8226,> 100 µM (inactive)
same,GI50,NCI-H226,> 100 µM (inactive)
same,GI50,Hs-578T,> 100 µM (inactive)
same,GI50,SF-268,> 100 µM (inactive)
same,GI50,SF-295,> 100 µM (inactive)
same,GI50,SK-MEL-28,> 100 µM (inactive)
same,GI50,CAKI-1,> 100 µM (inactive)
same,GI50,UACC-257,> 100 µM (inactive)
same,GI50,IGROV-1,55.6 µM (inactive)
same,GI50,SK-MEL-2,> 100 µM (inactive)
same,GI50,OVCAR-8,> 100 µM (inactive)
same,GI50,SW-620,> 100 µM (inactive)
same,GI50,OVCAR-3,> 100 µM (inactive)
same,GI50,HT-29,> 100 µM (inactive)
same,GI50,NCI/ADR-RES,> 100 µM (inactive)
same,GI50,NCI-H23,> 100 µM (inactive)
same,GI50,NCI-H522,> 100 µM (inactive)
same,GI50,OVCAR-4,89.7 µM (inactive)
same,GI50,BT-549,> 100 µM (inactive)
same,GI50,UACC-62,> 100 µM (inactive)
same,GI50,UO-31,> 100 µM (inactive)
same,GI50,SK-MEL-5,> 100 µM (inactive)
same,GI50,ACHN,> 100 µM (inactive)
same,GI50,LOX IMVI,> 100 µM (inactive)
same,GI50,SF-539,> 100 µM (inactive)
same,GI50,HOP-62,> 100 µM (inactive)
same,GI50,PC-3,> 100 µM (inactive)
same,GI50,HOP-92,> 100 µM (inactive)
same,GI50,786-0,> 100 µM (inactive)
same,GI50,T47D,> 100 µM (inactive)
same,GI50,Malme-3M,> 100 µM (inactive)
same,GI50,TK-10,> 100 µM (inactive)
same,GI50,U-251,> 100 µM (inactive)
same,GI50,A549,> 100 µM (inactive)
same,GI50,HCT-116,> 100 µM (inactive)
same,GI50,MDA-N,> 100 µM (inactive)
same,GI50,HL-60,> 100 µM (inactive)
same,GI50,A498,> 100 µM (inactive)
same,GI50,RXF 393,> 100 µM (inactive)
same,GI50,M14,> 100 µM (inactive)
same,GI50,MDA-MB-435,> 100 µM (inactive)
same,GI50,SNB-75,95.1 µM (inactive)
same,GI50,NCI-H460,> 100 µM (inactive)
same,GI50,MDA-MB-231,> 100 µM (inactive)
same,GI50,HCT-15,> 100 µM
same,GI50,EKVX,85.9 µM (inactive)
same,GI50,SN12C,> 100 µM (inactive)
same,GI50,KM12,> 100 µM (inactive)
same,GI50,CCRF-CEM,> 100 µM (inactive)
same,GI50,MCF7,> 100 µM (inactive)
same,GI50,OVCAR-5,> 100 µM (inactive)
same,GI50,SK-OV-3,> 100 µM (inactive)
Nc1nc2cc(Cl)ccc2n1N,GI50,RPMI-8226,> 100 µM (inactive)
same,GI50,NCI-H226,> 100 µM (inactive)
same,GI50,Hs-578T,> 100 µM (inactive)
same,GI50,SF-268,> 100 µM (inactive)
same,GI50,SF-295,> 100 µM (inactive)
same,GI50,SK-MEL-28,> 100 µM (inactive)
same,GI50,CAKI-1,> 100 µM (inactive)
same,GI50,UACC-257,> 100 µM (inactive)
same,GI50,SR,> 100 µM (inactive)
same,GI50,IGROV-1,> 100 µM (inactive)
same,GI50,OVCAR-8,> 100 µM (inactive)
same,GI50,SW-620,> 100 µM (inactive)
same,GI50,COLO 205,> 100 µM (inactive)
same,GI50,HT-29,> 100 µM (inactive)
same,GI50,MOLT-4,> 100 µM (inactive)
same,GI50,NCI-H23,> 100 µM (inactive)
same,GI50,NCI-H522,> 100 µM (inactive)
same,GI50,DU-145,> 100 µM (inactive)
same,GI50,BT-549,45.5 µM (inactive)
same,GI50,UACC-62,86.9 µM (inactive)
same,GI50,UO-31,> 100 µM (inactive)
same,GI50,SK-MEL-5,> 100 µM (inactive)
same,GI50,ACHN,> 100 µM (inactive)
same,GI50,LOX IMVI,> 100 µM (inactive)
same,GI50,SF-539,> 100 µM (inactive)
same,GI50,HOP-62,87.1 µM (inactive)
same,GI50,PC-3,> 100 µM (inactive)
same,GI50,786-0,> 100 µM (inactive)
same,GI50,T47D,> 100 µM (inactive)
same,GI50,Malme-3M,> 100 µM (inactive)
same,GI50,TK-10,> 100 µM (inactive)
same,GI50,U-251,> 100 µM (inactive)
same,GI50,HCC 2998,> 100 µM (inactive)
same,GI50,A549,> 100 µM (inactive)
same,GI50,HCT-116,> 100 µM (inactive)
same,GI50,SNB-19,> 100 µM (inactive)
same,GI50,MDA-N,> 100 µM (inactive)
same,GI50,HL-60,> 100 µM (inactive)
same,GI50,A498,> 100 µM (inactive)
same,GI50,RXF 393,67 µM (inactive)
same,GI50,M14,> 100 µM (inactive)
same,GI50,MDA-MB-435,> 100 µM (inactive)
same,GI50,SNB-75,> 100 µM (inactive)
same,GI50,K562,> 100 µM (inactive)
same,GI50,MDA-MB-231,> 100 µM (inactive)
same,GI50,HCT-15,> 100 µM
same,GI50,EKVX,> 100 µM (inactive)
same,GI50,SN12C,> 100 µM (inactive)
same,GI50,KM12,> 100 µM (inactive)
same,GI50,CCRF-CEM,> 100 µM (inactive)
same,GI50,MCF7,> 100 µM (inactive)
same,GI50,OVCAR-5,> 100 µM (inactive)
same,GI50,SK-OV-3,33.8 µM (inactive)
